# Source: patent US8722910B2, “Diyne compositions” (Evolva AG, priority 2009, dated 2014)
# Tests used:
# [1] = system: Enterobacter faecalis 29212; assay: In vitro Antibacterial Activity; assay type: cell-based
# [2] = system: Escherichia coli 700; assay: In vitro Antibacterial Activity; assay type: cell-based
# [3] = system: C. dubliniensis; assay: Susceptibility of clinical isolates (MIC, broth dilution); assay type: cell-based; conditions: Candida dubliniensis; C. dubliniensis (n = 25); M27-A3, 24 hrs; read at 50% inhibition (potassium salt, Voriconazole), 100% (Amphotericin), MEC (Caspofungin); read-out: MIC90
# Procedure: (§1) The efficacy of compound IV″ was investigated on 563 clinical isolates of 33 human fungal pathogens. […] For species with n≧10, the MIC90 (MIC, minimal inhibitory concentration) is given as ng/ml. For species with n≦10, the MIC range is given as ng/ml. 24 h and 48 h reads are indicated (Table 1).
# (§2) The in vitro efficacy of antifungal compounds is determined in susceptibility assays, which are indicative for the spectrum and potency of a compound. Susceptibilities are reported as minimal inhibitory concentrations (MIC, as ng/ml or μg/ml) required to inhibit growth to a defined degree compared to the drug free control. The MIC90 defines the MIC required to inhibit growth for ≧90% of the strains of a population tested.
# (§3) The MIC90 was calculated for the indicated species.
# [4] = system: C. glabrata; assay: as above; assay type: cell-based; conditions: Nakaseomyces glabratus; C. glabrata (n = 25); M27-A3, 24 hrs; read at 50% inhibition (potassium salt, Voriconazole), 100% (Amphotericin), MEC (Caspofungin); read-out: MIC90
# Procedure: as §1, §2, §3
# [5] = system: C. krusei; assay: as above; assay type: cell-based; conditions: Pichia kudriavzevii; C. krusei (n = 27); M27-A3, 24 hrs; read at 50% inhibition (potassium salt, Voriconazole), 100% (Amphotericin), MEC (Caspofungin); read-out: MIC90
# Procedure: as §1, §2, §3
# [6] = system: C. lusitaniae; assay: as above; assay type: cell-based; conditions: Clavispora lusitaniae; C. lusitaniae (n = 24); M27-A3, 24 hrs; read at 50% inhibition (potassium salt, Voriconazole), 100% (Amphotericin), MEC (Caspofungin); read-out: MIC90
# Procedure: as §1, §2, §3
# [7] = system: C. parapsilosis; assay: as above; assay type: cell-based; conditions: Lodderomyces parapsilosis; C. parapsilosis (n = 37); M27-A3, 24 hrs; read at 50% inhibition (potassium salt, Voriconazole), 100% (Amphotericin), MEC (Caspofungin); read-out: MIC90
# Procedure: as §1, §2, §3
# [8] = system: C. tropicalis; assay: as above; assay type: cell-based; conditions: Candida tropicalis; C. tropicalis (n = 35); M27-A3, 24 hrs; read at 50% inhibition (potassium salt, Voriconazole), 100% (Amphotericin), MEC (Caspofungin); read-out: MIC90
# Procedure: as §1, §2, §3
# [9] = system: C. glabrata, Fluconazole, Voriconazole, Itraconazole and/or Caspofungin resistant isolates; assay: Susceptibility of resistant clinical isolates (MIC, broth dilution); assay type: cell-based; conditions: Nakaseomyces glabratus; C. glabrata resistant (n = 21): isolates resistant to Fluconazole, Itraconazole, Voriconazole and Caspofungin; read-out: MIC90
# Procedure: as §1, §3
# [10] = system: Coccidioides spp.; assay: microbe, parasite or virus in culture; assay type: cell-based; conditions: Coccidioides, 48 h
# [11] = system: B. dermatitidis; assay: Susceptibility of clinical dimorphic fungi (MIC); assay type: cell-based; conditions: Blastomyces dermatitidis; B. dermatitidis (n = 30); CLSI M38-A2; 50% growth reduction; MIC read at 96 h
# [12] = system: H. capsulatum; assay: microbe, parasite or virus in culture; assay type: cell-based; conditions: Histoplasma capsulatum, 120 h
# [13] = system: C. albicans; assay: Fatty acid competition (antagonism) in 96-well plates; conditions: 48 h
# [14] = system: C. albicans; assay: Rat model of systemic candidiasis, single intravenous infusion, liver burden; assay type: in vivo; conditions: rats; single intravenous infusion 12 mg/kg; 24 h
# [15] = system: C. albicans; assay: Rat model of systemic candidiasis, single oral administration, kidney burden; assay type: in vivo; conditions: rats; single oral dose 17 mg/kg; 6 h
# [16] = Stability of diyne salts on storage (HPLC content); assay type: physicochemical
# Procedure: Potassium (Z)-14-(furan-2-yl)tetradeca-9-en-11,13-diynoate was kept as a crystalline solid for 6 month at 2-8° C. The content of potassium (Z)-14-(furan-2-yl)tetradeca-9-en-11,13-diynoate was determined by HPLC against a reference sample kept at −20° C. After 6 months of storage characteristics such as colour, water content, XRPD profile, of the solid had not changed and it was still a beige solid. […] Also no change in the impurity profile was observed after 6 months storage.
# Potassium (Z)-14-(furan-2-yl)tetradeca-9-en-11,13-diynoate was also kept as a crystalline solid for 6 month at 25° C., 60% RH. Analysis was performed as described above. After 6 months of storage characteristics of the solid has not changed and it was still a beige solid. […] Also no change in the impurity profile was observed after 6 months storage.
# Potassium (Z)-14-(furan-2-yl)tetradeca-9-en-11,13-diynoate was also kept as a crystalline solid for 6 month at 40° C., 75% RH. Analysis was performed as described above. After 6 months of storage the appearance of the solid had changed to a brown solid. Furthermore, a decrease in the content of potassium (Z)-14-(furan-2-yl)tetradeca-9-en-11,13-diynoate to 96% was observed as analysed by HPLC.
# Sodium (Z)-14-(furan-2-yl)tetradeca-9-en-11,13-diynoate was kept as an amorphous solid at room temperature. […] Furthermore the salt was dissolved in an aqueous solution and already after few days the content of sodium (Z)-14-(furan-2-yl)tetradeca-9-en-11,13-diynoate was reduced by 35%, thus proving strong instability of the amorphous salt form.
smiles,measurement,setting,value
"CC1(C)S[C@@H]2[C@H](NC(=O)[C@H](N)c3ccccc3)C(=O)N2[C@H]1C(=O)O [Ampicillin, reference compound]",MIC90,[1],0.78 µg/mL
same,MIC90,[2],3.12 µg/mL
CC[C@H](C)C[C@H](C)CCCCCCCCC(=O)N[C@H]1C[C@@H](O)[C@@H](NCCN)NC(=O)[C@@H]2[C@@H](O)CCN2C(=O)[C@H]([C@H](O)CCN)NC(=O)[C@H]([C@H](O)[C@@H](O)c2ccc(O)cc2)NC(=O)[C@@H]2C[C@@H](O)CN2C(=O)[C@H]([C@@H](C)O)NC1=O [Caspofungin],MIC90,[3],1 µg/mL
same,MIC90,[4],2 µg/mL
same,MIC90,[5],2 µg/mL
same,MIC90,[6],2 µg/mL
same,MIC90,[7],8 µg/mL
same,MIC90,[8],1 µg/mL
same,MIC90,[9],2 µg/mL
same,MIC90,[10],0.5 µg/mL
same,MIC90,[11],4 µg/mL
same,MIC90,[12],2 µg/mL
same,effect of oleic acid / stearic acid on susceptibility,[13],oleic acid did not decrease the susceptibility
"O=C([O-])CCCCCCC/C=C\C#CC#Cc1ccco1.[Na+] [Compound V″, sodium (Z)-14-(furan-2-yl)tetradeca-9-en-11,13-diynoate]",decrease of liver fungal burden (CFU per gram tissue),[14],93%
same,decrease of kidney fungal burden (CFU per gram tissue),[15],57%
same,appearance after storage,"[16]; amorphous solid at room temperature, short term storage",the colour darkened
same,reduction of content in aqueous solution,"[16]; aqueous solution, after few days",35%
